Assay results taken from US20230053688A1, “METHODS TO ALTER LATENCY IN EBV+ MALIGNANCIES” (Cornell University, priority 2020, published 2023).
Counter-ions that a name gives are not always drawn. Like-named read-outs stand apart in the source and are kept apart here.

Tested on: LMP1 expression in Kem I cells
Assay: microbe, parasite or virus in culture
Format: cell-based, EBV
Conditions: for fold induction at 2.5 µM: human gammaherpesvirus 4, 48 h
[1] = Kem I cells, 2.5 uM, 48 hours, average of replicates 1 and 2
[2] = Kem I cells, 2.5 uM, 48 hours, fold change in LMP1 transcript vs vehicle
[3] = read-out: Average LMP1 Fold Increase, Kem I cells, 2.5 uM, 48 hours, average of replicates 1 and 2
[4] = read-out: Replicate 1-LMP1 Fold Increase, Kem I cells, 2.5 uM, 48 hours, fold change in LMP1 transcript vs vehicle
[5] = read-out: Replicate 2-LMP1 Fold Increase, Kem I cells, 2.5 uM, 48 hours, fold change in LMP1 transcript vs vehicle

Row | Structure (SMILES) | Average LMP1 Fold Increase [1] | Replicate 1-LMP1 Fold Increase [2] | Replicate 2-LMP1 Fold Increase [2] | fold induction at 2.5 µM [3] | fold induction at 2.5 µM [4] | fold induction at 2.5 µM [5] | further results
1 | O=C(O)CNC(=O)c1c(O)c2ccccc2n(Cc2ccccc2)c1=O [IOX2] | 0.39 | 0.40 | 0.38 | – | – | – | –
2 | Oc1ccc2ccccc2c1SSc1c(O)ccc2ccccc12 [IPA-3] | 0.27 | 0.21 | 0.33 | – | – | – | –
3 | C=CC(=O)N1CCC[C@@H](n2nc(-c3ccc(Oc4ccccc4)cc3)c3c(N)ncnc32)C1 [Ibrutinib (PCl-32765)] | – | – | – | – | – | – | Average LMP1 Fold Increase: 0.15; Replicate 1-LMP1 Fold Increase: 0.09; Replicate 2-LMP1 Fold Increase: 0.22
4 | C#Cc1cccc(Nc2ncnc3cc4c(cc23)OCCOCCOCCO4)c1 [Icotinib] | – | – | – | 8.04 | 15.7 | 0.34 | –
5 | CNC(=O)[C@H](Cc1c[nH]c2ccccc12)NC(=O)[C@@H](CC(=O)NO)CC(C)C [Ilomastat (GM6001, Galardin)] | 0.08 | 0.05 | 0.12 | – | – | – | –
6 | Cc1ccc(NC(=O)c2ccc(CN3CCN(C)CC3)cc2)cc1Nc1nccc(-c2cccnc2)n1 [Imatinib (STI571)] | 0.42 | 0.60 | 0.25 | – | – | – | –
7 | CCOC(=O)[C@H](CCc1ccccc1)N[C@@H](C)C(=O)N1C(=O)N(C)C[C@H]1C(=O)O [Imidapril HCl] | – | – | – | 0.66 | 0.88 | 0.44 | –
8 | NC(=O)c1ccc(I)c([N+](=O)[O-])c1 [Iniparib (BSl-201)] | 0.63 | 0.51 | 0.76 | – | – | – | –
9 | CCc1c2c(nc3ccc(OC(=O)N4CCC(N5CCCCC5)CC4)cc13)-c1cc3c(c(=O)n1C2)COC(=O)[C@]3(O)CC [Irinotecan] | 0.59 | – | – | – | – | – | –
10 | CC1=C(/C=C/C(C)=C/C=C/C(C)=C\C(=O)O)C(C)(C)CCC1 [Isotretinoin] | – | – | – | 1.76 | 1.42 | 2.1 | –
11 | Cc1ccc(C(=O)N(CCCN)[C@@H](c2nc3cc(Cl)ccc3c(=O)n2Cc2ccccc2)C(C)C)cc1 [Ispinesib (SB-715992)] | 1.57 | 2.72 | 0.43 | – | – | – | –
12 | CCn1c(=O)c2c(nc(/C=C/c3ccc(OC)c(OC)c3)n2C)n(CC)c1=O [Istradefylline] | – | – | – | 0.7 | 0.35 | 1.06 | –
13 | CC(C)(C)c1cc(C(C)(C)C)c(NC(=O)c2c[nH]c3ccccc3c2=O)cc1O [Ivacaftor (VX-770)] | 1.35 | 2.22 | 0.49 | – | – | – | –
14 | O=C(Nc1ccccc1)N1CCN(c2nc(-c3ccccc3)ns2)CC1 [JNJ-1661010] | 0.51 | 0.31 | 0.70 | – | – | – | –
15 | Cc1ccc(NCCCc2ccccc2)c(N)c1 [JSH-23] | 0.77 | 0.86 | 0.69 | – | – | – | –
16 | COc1cc(-c2ncn(/C=C\C(=O)OC(C)C)n2)cc(C(F)(F)F)c1 [KPT-185] | 0.68 | 0.56 | 0.80 | – | – | – | –
17 | O=C(/C=C\n1cnc(-c2cc(C(F)(F)F)cc(C(F)(F)F)c2)n1)N1CC(F)(F)C1 [KPT-276] | 1.94 | 0.97 | 2.91 | – | – | – | –
18 | O=C(/C=C\n1cnc(-c2cc(C(F)(F)F)cc(C(F)(F)F)c2)n1)NNc1cnccn1 [KPT-330] | 0.35 | 0.28 | 0.42 | – | – | – | –
19 | O=c1cc(-c2cccc3c2Sc2ccccc2S3)oc(N2CCOCC2)c1 [KU-55933 (ATM Kinase Inhibitor)] | 0.78 | 0.60 | 0.95 | – | – | – | –
20 | C[C@@H]1CN(CC(=O)Nc2ccc3c(c2)Cc2cccc(-c4cc(=O)cc(N5CCOCC5)o4)c2S3)C[C@H](C)O1 [KU-60019] | – | – | – | 0.51 | 0.49 | 0.53 | –

Row | Structure (SMILES) | Average LMP1 Fold Increase [1] | Replicate 1-LMP1 Fold Increase [2] | Replicate 2-LMP1 Fold Increase [2] | fold induction at 2.5 µM [3] | fold induction at 2.5 µM [4] | fold induction at 2.5 µM [5] | further results
21 | COC(=O)CCSCc1ccc(-c2onc(C)c2NC(=O)OC(C)c2ccccc2Cl)cc1 (stereo not shown) [Ki16198] | 1.33 | 1.53 | 1.12 | – | – | – | –
22 | Cc1noc(-c2ccc(CSCCC(=O)O)cc2)c1NC(=O)OC(C)c1ccccc1Cl (stereo not shown) [Ki16425] | 0.62 | 0.80 | 0.45 | – | – | – | –
23 | O=C(c1cn(Cc2cncn2Cc2ccc(Br)cc2)cc1-c1cccc2ccccc12)N1CCOCC1 [LB42708] | 0.31 | 0.46 | 0.16 | – | – | – | –
24 | Cc1c(C(=O)Nc2ccc(N3C[C@@H](C)O[C@@H](C)C3)nc2)cccc1-c1ccc(OC(F)(F)F)cc1 [LDE225 (NVP-LDE225, Erismodegib)] | 0.39 | 0.50 | 0.29 | – | – | – | –
25 | Cc1cc(Nc2ncc(Cl)c(Nc3ccccc3S(=O)(=O)C(C)C)n2)c(OC(C)C)cc1C1CCNCC1 [LDK378] | – | – | – | 0.67 | 0.85 | 0.49 | –
26 | c1cc(-c2cnn3cc(-c4ccc(N5CCNCC5)cc4)cnc23)c2cccnc2c1 [LDN-212854] | 0.62 | 0.96 | 0.27 | – | – | – | –
27 | C[C@H](NC(=O)[C@@H](O)c1cc(F)cc(F)c1)C(=O)N[C@@H]1C(=O)N(C)c2ccccc2-c2ccccc21 [LY411575] | 0.36 | 0.41 | 0.31 | – | – | – | –
28 | Cc1cccc(-c2nn3c(c2-c2ccnc4ccc(C(N)=O)cc24)CCC3)n1 [LY2157299] | 0.30 | 0.30 | 0.30 | – | – | – | –
29 | CC(C)(C)Cn1c(N)nc2ccc(-c3[nH]c(C(C)(C)C)nc3-c3ccc(F)cc3)nc21 [LY2228820] | 0.60 | 0.63 | 0.56 | – | – | – | –
30 | Cc1cnc(NC(=O)Nc2cc(Br)c(C)cc2OC[C@@H]2CNCCO2)cn1 [LY2603618] | 1.21 | 0.94 | 1.47 | – | – | – | –
31 | Cc1cc(Nc2cc(CN3CCOCC3)c3nc(C)c(Cc4ccc(Cl)cc4F)n3n2)n[nH]1 [LY2784544] | 0.94 | 1.24 | 0.65 | – | – | – | –
32 | O=C(C[S+]([O-])Cc1ccco1)NC/C=C\COc1cc(CN2CCCCC2)ccn1 (stereo not shown) [Lafutidine] | – | – | – | 0.85 | 0.94 | 0.76 | –
33 | Nc1cccc2c1CN(C1CCC(=O)NC1=O)C2=O (stereo not shown) [Lenalidomide (CC-5013)] | 1.74 | 1.57 | 1.91 | – | – | – | –
34 | N#Cc1ccc(C(c2ccc(C#N)cc2)n2cncn2)cc1 [Letrozole] | – | – | – | 1.05 | 0.66 | 1.44 | –
35 | CCN1CCC[C@H]1CNC(=O)c1cc(S(N)(=O)=O)ccc1OC [Levosulpiride] | – | – | – | 0.5 | 0.7 | 0.3 | –
36 | CC#CCn1c(N2CCC[C@@H](N)C2)nc2c1c(=O)n(Cc1nc(C)c3ccccc3n1)c(=O)n2C [Linagliptin] | – | – | – | 0.91 | 1.01 | 0.81 | –
37 | Nc1nc(OCc2cc(Br)cs2)c2[nH]cnc2n1 [Lomeguatrib] | – | – | – | 1.09 | 0.57 | 1.61 | –
38 | CCOC(=O)N1CCC(=C2c3ccc(Cl)cc3CCc3cccnc32)CC1 [Loratadine] | – | – | – | 0.28 | 0.24 | 0.32 | –
39 | CCCCc1nc(Cl)c(CO)n1Cc1ccc(-c2ccccc2-c2nnn[n-]2)cc1.[K+] [Losartan Potassium (DuP 753)] | 0.35 | 0.21 | 0.48 | – | – | – | –
